Tested on: 653999-131-R-J2-PDC complex spheroid viability
Test: Anticancer human tumor 653999-131-R-J2-PDC patient-derived lung adenocarcinoma cell line growth inhibition
Settings: for IC50: curve of first compound; for viability, T/C: stronger effect = lower value
Text: Multicellular complex tumor spheroid response to LSD1 Inhibitor Iadademstat in combination with a variety of drugs and investigational agents in selected tumor cell lines
The current study was undertaken to assess response to LSD1 inhibitors in combination with standard-of-care drugs and investigational agents in solid tumor complex spheroid models as well as in the K-562 leukemia. Complex spheroids include a stromal component modeled by human endothelial cells (HUVEC) and fibroblasts modeled by human mesenchymal stem cells (MSCs). The concentration ranges selected for each drug and investigational agent were based upon clinically achievable concentrations if the clinical Cmax of the agent was known.
Compounds. The drugs and investigational agents used in this study are listed on Table 1. All of the agents used, including staurosporine (NSC755774) and gemcitabine (NSC613327), were obtained from the Developmental Therapeutics Program, NCI. FDA-approved anticancer drugs are available from the NCI at http://dtp.nci.nih.gov/branches/dscb/oncology_drugset_explanation.html. Drugs and investigational agents were >95% pure by proton nuclear magnetic resonance (NMR) and liquid chromatography/mass spectrometry (LC/MS). Stock solutions were prepared at 400x in DMSO, stored at -70 degrees C, and diluted in fresh medium prior to their use. The final concentration of DMSO in cell culture wells never exceeded 0.25% (v/v). The FDA-approved anticancer drug set is available from the Developmental Therapeutics Program at https://dtp.cancer.gov/organization/dscb/obtaining/available_plates.htm. All drugs and investigational agents were tested over a range starting from a high concentration at or near the clinical Cmax and decreasing in half-log increments. If the clinical Cmax for an agent had not been determined, the highest concentration tested was 10 microM.
Cell Lines. The patient-derived cancer cell (PDC) lines: 292921-168-R-J2-PDC, K24384-001-R-PDC, and 521955-158-R2-J5-PDC pancreatic carcinomas, 556581-035-R-J1 ovarian carcinoma, 324938-238-R-J1-PDC, 855422-203-R-J1-PDC and 883617-216-R-J1-PDC urothelial bladder carcinomas, 743489-274-T-PDC renal cell carcinoma, 138582-R-J1 Merkel cell tumor, K60290-347-R-J1 and K57222-313-R-J1-PDC glioblastomas, 653999-131-R-J2-PDC, LG0703-F948-PDC, and 349418-098-R-PDC non-small cell lung carcinomas, 885512-296-R-J2-PDC, 171881-019-R-J1-PDC breast carcinomas and 186277-243-T-J2-PDC and 233499-124-R-J2-PDC colon carcinomas were obtained from the NCI Patient-Derived Models Repository (PDMR, https://pdmr.cancer.gov). The established cell lines NCI/ADR-RES (RRID:CVCL_14520 and OVCAR-5 (RRID:CVCL_1628) ovarian carcinomas, 786-O (RRID:CVCL_1051) and A498 (RRID:CVCL_A498) renal cell carcinoma, NCI-H211 (ATCC, cat. CRL-5824; RRID:CVCL_1529), NCI-H196 (ATCC, cat. CRL-5823, RRID:CVCL_1509), SW 1271 (ATCC, cat. CRL-2177, RRID:CVCL_1716) and NCI-H1876 (ATCC, cat. CRL-5902, RRID:CVCL_1503) small cell lung carcinomas, MDA-MB-231 (RRID:CVCL_0062) and MDA-MB-468 (RRID:CVCL_0419)breast carcinomas (10-12). Pooled donor human umbilical vein endothelial cells (HUVEC, Lonza, cat. CC-2519) and human mesenchymal stem cells (hMSC, Lonza, cat. PT-2501) were purchased from Lonza (Walkersville, MD).
Cell Culture. All cells were maintained in an incubator at 37 degrees C and 5% CO2 with 95% humidity. The PDC lines were cultured according to standard operating procedures established by the NCI PDMR (https://pdmr.cancer.gov). Briefly all PDCs were thawed and cultured in Matrigel-coated flasks prepared with a working solution of 1X Ham's F-12 nutrient mix, without supplementation (Invitrogen, Waltham, MA, cat. 11765054), 100 U/mL penicillin-streptomycin (Invitrogen, cat. 15140122), and 2.5% Matrigel (Corning Inc., Corning, NY, cat. 354248) for the first three passages. […]

[1] = second compound 0.1 µM, first compound 0.0316 µM
[2] = second compound 0.1 µM, first compound 0.1 µM
[3] = second compound 0.1 µM, first compound 0.316 µM
[4] = second compound 0.1 µM, first compound 1 µM
[5] = second compound 0.316 µM, first compound 0.0316 µM
[6] = second compound 0.316 µM, first compound 0.1 µM
[7] = second compound 0.316 µM, first compound 0.316 µM
[8] = second compound 0.316 µM, first compound 1 µM
[9] = second compound 1 µM, first compound 0.0316 µM
[10] = second compound 1 µM, first compound 0.1 µM
[11] = second compound 1 µM, first compound 0.316 µM
[12] = second compound 1 µM, first compound 1 µM
[13] = second compound 3.16 µM, first compound 0.0316 µM
[14] = second compound 3.16 µM, first compound 0.1 µM
[15] = second compound 3.16 µM, first compound 0.316 µM
[16] = second compound 3.16 µM, first compound 1 µM
[17] = second compound 10 µM, first compound 0.0316 µM
[18] = second compound 10 µM, first compound 0.1 µM
[19] = second compound 10 µM, first compound 0.316 µM
[20] = second compound 10 µM, first compound 1 µM
[21] = second compound 0.1 µM, first compound 0.00316 µM
[22] = second compound 0.1 µM, first compound 0.01 µM
[23] = second compound 0.316 µM, first compound 0.00316 µM
[24] = second compound 0.316 µM, first compound 0.01 µM
[25] = second compound 1 µM, first compound 0.00316 µM
[26] = second compound 1 µM, first compound 0.01 µM
[27] = second compound 3.16 µM, first compound 0.00316 µM
[28] = second compound 3.16 µM, first compound 0.01 µM
[29] = second compound 10 µM, first compound 0.00316 µM
[30] = second compound 10 µM, first compound 0.01 µM
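Also: spheroids exposed to agents for seven days before readout.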

Compound	IC50 (second compound 0.1 µM) [nM]	IC50 (second compound 0.316 µM) [nM]	IC50 (second compound 1 µM) [nM]	IC50 (second compound 3.16 µM) [nM]	IC50 (second compound 10 µM) [nM]	viability, T/C [1] [%]	viability, T/C [2] [%]	viability, T/C [3] [%]	viability, T/C [4] [%]	viability, T/C [5] [%]	viability, T/C [6] [%]	viability, T/C [7] [%]	viability, T/C [8] [%]	viability, T/C [9] [%]	viability, T/C [10] [%]	viability, T/C [11] [%]	viability, T/C [12] [%]	viability, T/C [13] [%]	viability, T/C [14] [%]	viability, T/C [15] [%]	also measured
CC(C)c1c(-c2ccccc2)nc2c(C#N)c[nH]n2c1=O + NC1CCC(NC2CC2c2ccccc2)CC1	> 10000	> 10000	> 10000	> 10000	> 10000	92.5	97.8	91.4	80.6	94.5	89.6	100	82.3	94.2	105	92.8	84.9	85.9	103	84.6	viability, T/C (second compound 0.1 µM, first compound 3.16 µM): 91.8%; viability, T/C (second compound 0.1 µM, first compound 10 µM): 91.5%; viability, T/C (second compound 0.316 µM, first compound 3.16 µM): 85.5%; viability, T/C (second compound 0.316 µM, first compound 10 µM): 77.5%; viability, T/C (second compound 1 µM, first compound 3.16 µM): 87.2%; viability, T/C (second compound 1 µM, first compound 10 µM): 85.1%; viability, T/C [16]: 95.1%; viability, T/C (second compound 3.16 µM, first compound 3.16 µM): 89%; viability, T/C (second compound 3.16 µM, first compound 10 µM): 80%; viability, T/C [17]: 91.9%; viability, T/C [18]: 88.1%; viability, T/C [19]: 82.6%; viability, T/C [20]: 78.1%; viability, T/C (second compound 10 µM, first compound 3.16 µM): 75.5%; viability, T/C (second compound 10 µM, first compound 10 µM): 69.4%
Nc1ncn(C2CC(O)C(CO)O2)c(=O)n1 (stereo not given) + NC1CCC(NC2CC2c2ccccc2)CC1	> 1000	> 1000	> 1000	> 1000	> 1000	91.4	69	68.9	70.7	87.5	82.7	75.8	64.4	86.9	75.1	81.8	62	94.2	81.4	77.4	viability, T/C [21]: 102%; viability, T/C [22]: 89.1%; viability, T/C [23]: 93.3%; viability, T/C [24]: 105%; viability, T/C [25]: 92.1%; viability, T/C [26]: 86.5%; viability, T/C [27]: 87.1%; viability, T/C [28]: 87.6%; viability, T/C [16]: 78%; viability, T/C [29]: 93.5%; viability, T/C [30]: 99.3%; viability, T/C [17]: 85.8%; viability, T/C [18]: 86.6%; viability, T/C [19]: 73.3%; viability, T/C [20]: 82.5%
Nc1ncn(C2CC(O)C(CO)O2)c(=O)n1 (stereo not given) + NC1CC1c1ccc(-c2cccc(O)c2)cc1	> 1000	> 1000	> 1000	> 1000	> 1000	96.3	79.4	83.6	73.5	87.8	87.5	85.4	79.9	95.5	81.3	86.5	67.5	93.7	101	93.8	viability, T/C [21]: 103%; viability, T/C [22]: 101%; viability, T/C [23]: 87.8%; viability, T/C [24]: 113%; viability, T/C [25]: 91.2%; viability, T/C [26]: 92%; viability, T/C [27]: 94%; viability, T/C [28]: 112%; viability, T/C [16]: 90%; viability, T/C [29]: 94.3%; viability, T/C [30]: 103%; viability, T/C [17]: 90.7%; viability, T/C [18]: 93.5%; viability, T/C [19]: 84.8%; viability, T/C [20]: 95.6%
